Assay results from ChEMBL document CHEMBL2062514 (J Med Chem, 2012).
pKi: −log10 of the molar value.

What was measured:
[1] = biological target: T1, Adenosine receptor A3 (Homo sapiens) (UniProt P0DMS8); experiment: Agonist activity at human recombinant adenosine A3 receptor expressed in CHO cells assessed as inhibition of forskolin-stimulated cAMP production at 10 uM incubated for 30 mins prior to forskolin-stimulation measured after 15 mins by enzyme immunoassay relative to NECA; type: functional, cell-based
T1 sequence (whole entry): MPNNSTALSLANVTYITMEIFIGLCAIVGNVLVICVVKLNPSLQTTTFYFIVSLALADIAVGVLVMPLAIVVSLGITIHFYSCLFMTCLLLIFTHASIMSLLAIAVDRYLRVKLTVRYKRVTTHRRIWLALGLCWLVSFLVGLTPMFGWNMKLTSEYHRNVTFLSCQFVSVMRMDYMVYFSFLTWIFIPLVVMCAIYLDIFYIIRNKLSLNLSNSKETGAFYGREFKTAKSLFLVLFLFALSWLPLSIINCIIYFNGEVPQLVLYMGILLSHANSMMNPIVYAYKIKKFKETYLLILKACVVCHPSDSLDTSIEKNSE

Adenosine receptor A3 [2] = biological target: T2, Adenosine receptor A3 (Homo sapiens, UniProt P0DMS8); experiment: Displacement of [3H]I-AB-MECA from human recombinant adenosine A3 receptor expressed in CHO cells after 60 mins by gamma counting; type: cell-based
T2 sequence (P0DMS8 whole entry): T1 sequence (whole entry)

Adenosine receptor A2a = Adenosine receptor A2a (Homo sapiens, UniProt P29274); experiment: Displacement of [3H]CGS21680 from human recombinant adenosine A2A receptor expressed in HEK293 cells at 10 uM after 60 mins by liquid scintillation counting; type: cell-based
[3] = biological target: T3, Adenosine receptor A1 (Homo sapiens) (UniProt P30542); experiment: Displacement of [3H]R-PIA from human recombinant adenosine A1 receptor expressed in CHO cells at 10 uM after 60 mins by liquid scintillation counting; type: cell-based
T3 sequence (whole entry): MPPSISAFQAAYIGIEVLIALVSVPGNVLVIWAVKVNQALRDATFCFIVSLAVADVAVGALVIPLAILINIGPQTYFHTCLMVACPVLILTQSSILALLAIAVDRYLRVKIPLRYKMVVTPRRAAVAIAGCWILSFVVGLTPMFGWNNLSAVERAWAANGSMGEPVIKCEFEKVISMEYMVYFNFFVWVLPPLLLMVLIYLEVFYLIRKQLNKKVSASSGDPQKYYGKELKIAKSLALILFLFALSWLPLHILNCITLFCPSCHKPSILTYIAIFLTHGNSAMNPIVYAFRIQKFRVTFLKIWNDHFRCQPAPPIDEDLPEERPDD

Adenosine receptor A1 [4] = biological target: T4, Adenosine receptor A1 (Mus musculus, UniProt Q60612); experiment: Displacement of [125I]I-AB-MECA from mouse adenosine A1 receptor expressed in HEK293 cells after 60 mins by liquid scintillation counting
T4 sequence (Q60612 whole entry): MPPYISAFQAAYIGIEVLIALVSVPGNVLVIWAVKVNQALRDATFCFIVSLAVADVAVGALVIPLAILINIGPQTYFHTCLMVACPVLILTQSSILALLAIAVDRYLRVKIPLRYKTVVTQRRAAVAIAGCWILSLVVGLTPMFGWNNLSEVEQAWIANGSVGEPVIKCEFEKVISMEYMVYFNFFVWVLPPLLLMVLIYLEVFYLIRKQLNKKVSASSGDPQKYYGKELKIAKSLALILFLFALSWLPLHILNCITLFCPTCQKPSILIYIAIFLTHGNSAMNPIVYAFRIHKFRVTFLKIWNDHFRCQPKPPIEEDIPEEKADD

Adenosine receptor A1 [5] = biological target: T5, Adenosine receptor A1 (Homo sapiens, UniProt P30542); experiment: Displacement of [3H]R-PIA from human recombinant adenosine A1 receptor expressed in CHO cells after 60 mins by liquid scintillation counting; type: cell-based
T5 sequence (P30542 whole entry): T3 sequence (whole entry)

[6] = biological target: Adenosine receptor A2a (Mus musculus) (UniProt Q60613); experiment: Displacement of [3H]CGS21680 from mouse adenosine A2A receptor expressed in HEK293 cells at 10 uM after 60 mins by liquid scintillation counting
Adenosine receptor A3 [7] = biological target: T6, Adenosine receptor A3 (Mus musculus, UniProt Q61618); experiment: Displacement of [125I]I-AB-MECA from mouse adenosine A3 receptor expressed in HEK293 cells after 60 mins by liquid scintillation counting
T6 sequence (Q61618 whole entry): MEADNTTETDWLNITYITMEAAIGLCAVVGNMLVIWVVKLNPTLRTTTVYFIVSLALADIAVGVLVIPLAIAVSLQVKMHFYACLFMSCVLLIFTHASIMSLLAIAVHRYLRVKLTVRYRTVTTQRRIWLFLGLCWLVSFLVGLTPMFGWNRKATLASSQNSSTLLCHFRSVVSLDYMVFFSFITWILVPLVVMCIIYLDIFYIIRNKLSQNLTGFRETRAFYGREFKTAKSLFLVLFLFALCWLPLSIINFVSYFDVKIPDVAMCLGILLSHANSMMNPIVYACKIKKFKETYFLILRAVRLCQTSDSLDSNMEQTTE

Sequence of Adenosine receptor A2a (P29274 whole entry): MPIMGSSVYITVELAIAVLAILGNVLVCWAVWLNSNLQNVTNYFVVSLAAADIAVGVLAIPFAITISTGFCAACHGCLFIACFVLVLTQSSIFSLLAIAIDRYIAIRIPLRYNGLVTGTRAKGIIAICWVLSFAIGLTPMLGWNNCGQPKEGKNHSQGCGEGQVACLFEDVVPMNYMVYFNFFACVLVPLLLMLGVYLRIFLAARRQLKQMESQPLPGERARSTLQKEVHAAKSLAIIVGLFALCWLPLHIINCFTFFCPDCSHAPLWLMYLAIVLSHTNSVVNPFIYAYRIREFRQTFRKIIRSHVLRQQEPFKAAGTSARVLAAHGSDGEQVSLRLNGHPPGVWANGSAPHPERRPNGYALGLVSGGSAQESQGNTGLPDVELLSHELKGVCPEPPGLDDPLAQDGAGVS
Sequence of Adenosine receptor A2a (Mus musculus) (Q60613 whole entry): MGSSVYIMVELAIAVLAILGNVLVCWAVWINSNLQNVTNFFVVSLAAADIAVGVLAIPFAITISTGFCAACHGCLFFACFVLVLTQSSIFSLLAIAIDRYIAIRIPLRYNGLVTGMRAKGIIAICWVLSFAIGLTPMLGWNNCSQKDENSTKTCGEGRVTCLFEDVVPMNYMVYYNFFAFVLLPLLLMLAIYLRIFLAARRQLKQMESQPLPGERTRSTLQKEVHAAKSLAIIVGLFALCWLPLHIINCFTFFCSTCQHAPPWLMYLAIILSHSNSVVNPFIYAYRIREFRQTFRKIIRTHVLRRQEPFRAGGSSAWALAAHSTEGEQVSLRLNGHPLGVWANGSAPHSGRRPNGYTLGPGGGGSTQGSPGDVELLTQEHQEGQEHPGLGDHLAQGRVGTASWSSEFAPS

SMILES | Efficacy [1] | pKi (Adenosine receptor A3 [2]) | inhibition (Adenosine receptor A2a) | inhibition [3] | pKi (Adenosine receptor A1 [4]) | pKi (Adenosine receptor A1 [5]) | inhibition [6] | pKi (Adenosine receptor A3 [7])
CNC(=O)[C@@]12C[C@@H]1[C@@H](n1cnc3c(NCc4cccc(Cl)c4)nc(C#Cc4cc5cccc6ccc7cccc4c7c65)nc31)[C@H](O)[C@@H]2O | 97.1% | 6.18 | 4% | 11% |  |  |  | 
CNC(=O)[C@@]12C[C@@H]1[C@@H](n1cnc3c(NCc4cccc(Cl)c4)nc(C#Cc4ccc(N)cc4)nc31)[C@H](O)[C@@H]2O | 76.6% |  | 44% |  | 6.58 | 5.82 | 5% | 9.09
